Reference: US11103493B2, “Substituted pyridinyl compounds as indoleamine 2,3-dioxygenase (IDO) inhibitors” (Merck Sharp & Dohme Corp., priority 2017, dated 2021)

What was measured:
IDO1 [1] = biological target: T1, IDO1 (Homo sapiens, UniProt P14902); assay: IDO1 Human Whole Blood Assay; type: cell-based; details: LPS and IFNγ 100 ng/mL, 18 h, kynurenine by LC/MS/MS
Description: IDO1 Human Whole Blood Assay
Compounds to be tested were serially diluted in ten 3-fold steps in DMSO starting from 10 mM. 3 μL of compound dilutions or DMSO alone were then dispensed from the dilution plate into a polypropylene 96-well assay plate containing 97 μL of RPMI medium using an Echo 555 acoustic liquid handler (Labcyte). LPS and IFNγ was prepared in RPMI medium to a 10× of final conc. (1000 ng/mL), final concentration is 100 ng/mL.
Human whole blood was drawn in sodium heparin coated tubes from healthy internal donors. 240 μL of blood was transferred to each of the wells of a v-bottom 96 well plate. 30 μL of compound was transferred from intermediate dilution plate, and incubated for 15 min. 30 μL from stimulants was then transferred to blood and mixed thoroughly. Plate was covered with breathable membrane and incubated at 37° C. for overnight (18 h).
On day 2, isotope labeled standard solutions of kunurenine and tryptophan was made in water at 10× concentration and 30 μL was added to the blood at […] concentration. The assay plates were centrifuged at 300×G for 10 min with no brake to separate plasma from red blood cells. 60 μL of plasma samples was removed without disturbing red blood cells. Plasma was diluted with RPMI in 1:1 ratio and proteins were precipitated out with two volumes of Acetonitrile. The plates were centrifuged at 4000×G for 60 min. 20 μL of supernatant was carefully transferred to a 384 well plate containing 40 μL of 0.1% formic acid in water and analyzed by LC/MS/MS.
LC/MS/MS analyses were performed using Thermo Fisher's LX4-TSQ Quantum Ultra system. This system consists of four Agilent binary high-performance liquid chromatography (HPLC) pumps and a TSQ Quantum Ultra triple quadrupole MS/MS instrument. For each sample, 5 μL were injected onto an Atlantis T3 column (2.1 mm×150 mm, 3 μm particle size) from Waters. The mobile phase gradient pumped at 0.8 mL/min was used to elute the analytes from the column at 25° C. The elution started at 0% B increasing linearly to 25% B at 6.5 min, holding at 25% for 1 min, re-equilibrating to 10 min. Mobile phase A consisted of 0.1% formic acid in water. Mobile phase B consisted of 0.1% of formic acid in acetonitrile. Data was acquired in positive mode using a HESI interface. The operational parameters for the TSQ Quantum Ultra instrument were a spray voltage of 4000 V, capillary temperature of 380° C., vaporizer temperature 400° C., shealth gas 60 arbitrary units, Aux gas 20 arbitrary units, tube lens 85 and collision gas 1.2 mTorr. SRM chromatograms of kynurenine (QI: 209.2>Q3:94.0) and internal standard (QI: 215.3>Q3:98.2) were collected for 90 sec. The peak area was integrated by Xcalibur Quan software. The ratios between the kynurenine generated in the reaction and 2D6-Kynurenine spiked-in internal standard were used to generate percentage inhibition and IC50 values. Compounds were titrated and IC50's were calculated by 4 parameter sigmoidal curve fitting formula.

IDO1 [2] = biological target: T1, IDO1; assay: IDO1 Cellular Assay in HeLa Cells Stimulated with IFNγ; type: cell-based; details: IFNγ 100 ng/mL, 300 uM L-tryptophan, about 48 hours incubation, fluorescence readout, read-out: IDO1 HeLa Cell Assay, IC50
Description: IDO1 Cellular Assay in HeLa Cells Stimulated with IFNγ
HeLa cells were cultured in complete HeLa culture medium (90% EMEM, 10% heat-inactivated fetal bovine serum) and expanded to about 1×10^9 cells. The cells were then collected and frozen down at 1×10^7 cells/vial in 1 mL frozen medium (90% complete HeLa culture medium, 10% DMSO).
Compounds to be tested were serially diluted in ten 3-fold steps in DMSO starting from 10 mM DMSO stocks in Echo low volume plate(s).
Frozen HeLa cells were thawed and transferred into HeLa assay medium (99% complete HeLa culture medium, 1% Pen/Strep) with 20 mL medium/vial of cells. The cells were spun down at 250 g in a table top centrifuge for 5 min and suspended in same volume of HeLa assay medium. The cells were then counted and adjusted to a density of 2×10^5 cells/mL in HeLa assay medium. Sterile L-tryptophan were added to the cells with final concentration of 300 uM L-tryptophan. A small aliquot (2 mL/plate) of HeLa cells were set aside and were not treated with IFNγ, to serve as the Max-E control.
HeLa cells with and without IFNγ were dispensed to the respective wells of 384-well assay plates containing the compounds. The plates were incubated for about 48 hours at a 37° C., 5% CO2 incubator. Afterwards, 12 μL of 0.5 M methyl isonipecotate in dimethyl sulfoxide were added into each well and the plates were sealed and incubated at 37° C. without CO2 overnight. The plates were centrifuged for 1 min at 200×g. The resulting fluorescence was measured in a Spectramax plate reader (Molecular Devices) with a 400 nm excitation filter and a 510 nm emission filter.
Potencies were calculated by […] least squares fit to the four parameter logistic IC50 equation.

T1 sequence (P14902 whole entry): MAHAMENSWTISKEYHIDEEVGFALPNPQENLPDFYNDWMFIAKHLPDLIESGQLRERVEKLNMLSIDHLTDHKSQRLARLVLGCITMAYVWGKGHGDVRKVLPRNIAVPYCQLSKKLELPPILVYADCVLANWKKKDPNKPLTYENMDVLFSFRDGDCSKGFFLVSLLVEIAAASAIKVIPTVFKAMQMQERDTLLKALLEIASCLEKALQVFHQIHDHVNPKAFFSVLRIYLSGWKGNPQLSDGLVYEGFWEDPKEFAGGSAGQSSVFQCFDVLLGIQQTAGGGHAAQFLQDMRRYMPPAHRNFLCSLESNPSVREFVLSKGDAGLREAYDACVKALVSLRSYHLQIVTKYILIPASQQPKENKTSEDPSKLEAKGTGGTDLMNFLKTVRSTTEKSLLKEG

IC50 (IDO1 [1]) | IC50 (IDO1 [2]) | SMILES
273 nM | 5.66 nM | O=C(Nc1ccc(C2(c3nc4ncc(C(F)(F)F)cc4[nH]3)CCC2)cn1)c1cccc(Cl)c1 [Ex. 7, 3-chloro-N-(5-{1-[6-(trifluoromethyl)-1H-imidazo[4,5-b]pyridin-2-yl]cyclobutyl}pyridin-2-yl)benzamide]
493 nM | 4.69 nM | Cc1cc(C)c2[nH]c(C3(c4ccc(NC(=O)c5cccc(Cl)c5)nc4)CCC3)nc2c1 [Ex. 8, 3-chloro-N-{5-[1-(5,7-dimethyl-1H-benzimidazol-2-yl)cyclobutyl]pyridin-2-yl}benzamide]
504 nM | 5.1 nM | Cc1cc(Cl)cc2nc(C3(c4ccc(NC(=O)c5cccc(Cl)c5)nc4)CCC3)[nH]c12 [Ex. 9, 3-chloro-N-{5-[1-(5-chloro-7-methyl-1H-benzimidazol-2-yl)cyclobutyl]pyridin-2-yl}benzamide]
501 nM | 5.23 nM | Cc1ccc2nc(C3(c4ccc(NC(=O)c5cccc(Cl)c5)nc4)CCC3)[nH]c2c1C [Ex. 10, 3-chloro-N-{5-[1-(6,7-dimethyl-1H-benzimidazol-2-yl)cyclobutyl]pyridin-2-yl}benzamide]
125 nM | 2.79 nM | Cc1ccc2nc(C3(c4ccc(NC(=O)c5cccc(Cl)c5)nc4)CCC3)[nH]c2c1 [Ex. 13, 3-chloro-N-{5-[1-(6-methyl-1H-benzimidazol-2-yl)cyclobutyl]pyridin-2-yl}benzamide]
889 nM | 7.77 nM | O=C(Nc1ccc(C2(c3nc4cc(F)c(F)cc4[nH]3)CCC2)cn1)c1cccc(Cl)c1 [Ex. 16, 3-chloro-N-{5-[1-(5,6-difluoro-1H-benzimidazol-2-yl)cyclobutyl]pyridin-2-yl}benzamide]
829 nM | 4.9 nM | O=C(Nc1ccc(C2(c3nc4cc(F)cc(F)c4[nH]3)CCC2)cn1)c1cccc(Cl)c1 [Ex. 17, 3-chloro-N-{5-[1-(5,7-difluoro-1H-benzimidazol-2-yl)cyclobutyl]pyridin-2-yl}benzamide]
279 nM | 2.42 nM | O=C(Nc1ccc(C2(c3nc4ccc(C(F)(F)F)cc4[nH]3)CCC2)cn1)c1cccc(Cl)c1 [Ex. 19, 3-chloro-N-(5-{1-[6-(trifluoromethyl)-1H-benzimidazol-2-yl]cyclobutyl}pyridin-2-yl)benzamide]
80.9 nM | 1.89 nM | O=C(Nc1ccc(C2(c3nc4ccc(Cl)cc4[nH]3)CCC2)cn1)c1cccc(Cl)c1 [Ex. 21, 3-chloro-N-{5-[1-(6-chloro-1H-benzimidazol-2-yl)cyclobutyl]pyridin-2-yl}benzamide]
1070 nM | 7.67 nM | O=C(Nc1ccc(C2(c3nc4ccc(OC(F)F)cc4[nH]3)CCC2)cn1)c1cccc(Cl)c1 [Ex. 23, 3-chloro-N-(5-{1-[6-(difluoromethoxy)-1H-benzimidazol-2-yl]cyclobutyl}pyridin-2-yl)benzamide]
826 nM | 6.65 nM | O=C(Nc1ccc(C2(c3nc4cccc(CO)c4[nH]3)CCC2)cn1)c1cccc(Cl)c1 [Ex. 24, 3-chloro-N-(5-{1-[7-(hydroxymethyl)-1H-benzimidazol-2-yl]cyclobutyl}pyridin-2-yl)benzamide]
691 nM | 7.21 nM | O=C(Nc1ccc(C2(c3nc4cccc(F)c4[nH]3)CCC2)cn1)c1cccc(Cl)c1 [Ex. 25, 3-chloro-N-{5-[1-(7-fluoro-1H-benzimidazol-2-yl)cyclobutyl]pyridin-2-yl}benzamide]
496 nM | 3.47 nM | Cc1cc2nc(C3(c4ccc(NC(=O)c5cccc(Cl)c5)nc4)CCC3)[nH]c2cc1F [Ex. 27, 3-chloro-N-{5-[1-(6-fluoro-5-methyl-1H-benzimidazol-2-yl)cyclobutyl]pyridin-2-yl}benzamide]
2290 nM | 23.5 nM | N#Cc1cccc(C(=O)Nc2ccc(C3(c4nc5cc(C(F)(F)F)cnc5[nH]4)CCC3)cn2)c1 [Ex. 28, 3-cyano-N-(5-{1-[6-(trifluoromethyl)-3H-imidazo[4,5-b]pyridin-2-yl]cyclobutyl}pyridin-2-yl)benzamide]
312 nM | 6.58 nM | N#Cc1cccc(C(=O)Nc2ccc(C3(c4nc5cc(Cl)ccc5[nH]4)CCC3)cn2)c1 [Ex. 30, N-(5-[1-(5-chloro-1H-benzimidazol-2-yl)cyclobutyl]pyridin-2-yl}-3-cyanobenzamide]
446 nM | 5.4 nM | O=C(Nc1ccc(C2(c3nc4cccc(CCCO)c4[nH]3)CCC2)cn1)c1cccc(Cl)c1 [Ex. 32, 3-Chloro-N-(5-(1-(7-(3-hydroxypropyl)-1H-benzo[d]imidazol-2-yl)cyclobutyl)pyridin-2-yl)benzamide]
1600 nM | 20.7 nM | O=C(O)Cc1cccc2nc(C3(c4ccc(NC(=O)c5cccc(Cl)c5)nc4)CCC3)[nH]c12 [Ex. 33, 2-(2-(1-(6-(3-Chlorobenzamido)pyridin-3-yl)cyclobutyl)-1H-benzo[d]imidazol-7-yl)acetic acid]
3290 nM | 24.8 nM | N#Cc1cccc(C(=O)Nc2ccc(C3(c4nc5cccc(CCO)c5[nH]4)CCC3)cn2)c1 [Ex. 34, 3-Cyano-N-(5-(1-(7-(2-hydroxyethyl)-1H-benzo[d]imidazol-2-yl)cyclobutyl)pyridin-2-yl)benzamide]
58.2 nM | 5.38 nM | N#Cc1cccc(C(=O)Nc2ccc(C3(c4nc5cccc(C(=O)N6CCC(O)CC6)c5[nH]4)CCC3)cn2)c1 [Ex. 37, 3-Cyano-N-(5-(1-(7-(4-hydroxypiperidine-1-carbonyl)-1H-benzo[d]imidazol-2-yl)cyclobutyl)pyridin-2-yl)benzamide]
220 nM | 2.18 nM | N#Cc1cccc(C(=O)Nc2ccc(C3(c4nc5cccc(C(=O)N6CCCC6)c5[nH]4)CCC3)cn2)c1 [Ex. 38, 3-cyano-N-(5-{1-[7-(pyrrolidine-1-carbonyl)-1H-benzimidazol-2-yl]cyclobutyl}pyridin-2-yl)benzamide]
5780 nM | 4.98 nM | N#Cc1cccc(C(=O)Nc2ccc(C3(c4nc5ncc(C(F)(F)F)cc5[nH]4)CCC3)nc2)c1 [Ex. 45, 3-Cyano-N-(6-(1-(6-(trifluoromethyl)-1H-imidazo[4,5-b]pyridin-2-yl)cyclobutyl)pyridin-3-yl)benzamide]
1690 nM | 6.11 nM | N#Cc1cccc(C(=O)Nc2ccc(C3(c4nc5ccccc5[nH]4)CCC3)nc2)c1 [Ex. 46, N-(6-(1-(1H-benzo[d]imidazol-2-yl)cyclobutyl)pyridin-3-yl)-3-cyanobenzamide]
